Results from US9896421B2, “Compound having skin-whitening, anti-oxidizing and PPAR activities and medical use thereof” (Pusan National University Industry-University Cooperation …, priority 2011, dated 2018).

What was measured:
[1] = test system: male Balb/c mouse; assay: Toxicity test, single oral administration; format: in vivo; conditions: single oral dose 0.5, 1 and 2 g/kg in 0.5% methylcellulose, observed 7 days
Description: A suspension of each of Compound 3, Compound 15, Compound 50, Compound 85, Compound 93, and Compound 115 in a 0.5% methylcellulose solution was orally administered once to a male Balb/c mouse in dosages of 0.5 g/kg, 1 g/kg, and 2 g/kg, and then the survival rate and body weight of the mouse was recorded for 7 days.
After the administration, whether the mouse died, clinical symptoms occurred, and body weight changed were identified and hematologic examination and blood biochemical examination were performed, and autopsy was performed to identify with naked eyes states of abdominal cavity organs and thoracic cavity organs.

[2] = test system: Mushroom-derived tyrosinase; assay: Tyrosinase inhibitory effect; format: biochemical; conditions: 1 mM L-tyrosin, pH 6.5, 25° C., 30 minutes, OD492; compared with kojic acid (positive control); FIGS. 4 to 6
Description: Mushroom-derived tyrosinase was sued as an enzyme source in the present experiment. Tyrosinase activities were assayed according to a slightly-modified conventionally known method (Life Sci., 1999, 65, 241-246). In detail, 20 μl of a mushroom-derived tyrosinase (1000 units) aqueous solution was added to 96-well microplate (Nunc, Denmark) to prepare 200 μl of the total volume of assay mixture containing 1 mM L-tyrosin solution and 50 mM phosphate buffer solution (pH 6.5). The assay mixture was cultured at a temperature of 25° C. for 30 minutes. After the culturing, an amount of the produced DOPA chrome in the reaction mixture was measured by using a microplate reader (Hewlett Packard) at 492 nm (OD492).

[3] = test system: ROS generated by vascular endothelial cells (YPEN-1); assay: In vitro ROS scavenging activity assay (DCFDA) in YPEN-1 vascular endothelial cells; format: cell-based, rat; conditions: YPEN-1 cells pre-treated with 50 μM SIN-1 for 1 hour; DCFDA fluorescence; compared with trolox (positive control); FIGS. 1 to 3
Description: YPEN-1 cells (rat prostatic endothelial cell line) was obtained from American type culture collection (ATCC, Manassas, Va., USA), and the cells were cultured by using a dulbecco's modified eagle medium (DMEM, Nissui, Tokyo, Japan) containing 2 mM L-glutamine, […], 2.5 mg/L amphotericin B, and 5% inactivated fetal bovine serum (FBS). Also, the cells were maintained at a temperature of 37° C. in a humid atmosphere-like condition containing 5% CO2 and 95% air. […] The cells were sub-cultured in 100 mm plastic flask (Corning Co., New York, USA) every two days to maintain the cell line.
Since the oil-soluble DCFDA was deacetylated into non-fluorescent DCFH due to esterase or oxidative hydrolysis and the DCFH was oxidized due to activity oxgyen to produce highly-fluorescent 2′,7′-dichlorofluorescein (DCF), the present measurement was performed at an excitation wavelength of 485 nm and an emission wavelength of 530 nm by using a fluorophotometer (GENios, TECAN). Vascular endothelial cells that were pre-treated with 50 μM 3-morpholinosydnonimine hydrochloride (SIN-1) for 1 hour were used as a reactive oxygen generation source.

SMILES | death and clinical symptoms [1] | toxicity change (body weight change, hematologic examination, blood biochemical examination, autopsy) [1] | tyrosinase inhibitory activities [2] | melting point | scavenging effects on ROS generated by vascular endothelial cells [3]
O=C1NC(=O)/C(=C/c2ccc(O)cc2O)S1 [Compound 3, (Z)-5-(2,4-dihydroxybenzylidene)thiazolidine-2,4-dione] | neither had distinctive clinical symptoms nor died | toxicity change was not identified | better tyrosinase inhibitory activities than a kojic acid | – | –
O=C1NC(=O)/C(=C/c2ccc(O)c(O)c2)S1 [Compound 2, (Z)-5-(3,4-dihydroxybenzylidene)thiazolidine-2,4-dione] | – | – | – | > 300 °C | as high scavenging effects on ROS generated by vascular endothelial cells as trolox
O=C1NC(=O)/C(=C/c2ccc(O)c(O)c2)N1 [Compound 26, (Z)-5-(3,4-dihydroxybenzylidene)imidazolidine-2,4-dione] | – | – | – | > 300 °C | as high scavenging effects on ROS generated by vascular endothelial cells as trolox
COc1ccc(/C=C2\NC(=O)NC2=O)cc1O [Compound 29, (Z)-5-(3-hydroxy-4-methoxybenzylidene)imidazolidine-2,4-dione] | – | – | better tyrosinase inhibitory activities than a kojic acid | 250.7 to 253.4 °C | –
CCOc1cc(/C=C2\NC(=S)NC2=O)ccc1O [Compound 102, (Z)-5-(3-ethoxy-4-hydroxybenzylidene)-2-thioxoimidazolidin-4-one] | – | – | – | 175.4 to 177.2 °C | as high scavenging effects on ROS generated by vascular endothelial cells as trolox
COc1ccc(/C=C2\NC(=S)NC2=O)cc1O [Compound 103, (Z)-5-(3-hydroxy-4-methoxybenzylidene)-2-thioxoimidazolidin-4-one] | – | – | better tyrosinase inhibitory activities than a kojic acid | 279.6 to 282.2 °C | –
O=C1C/C(=C\c2ccc(O)cc2O)C(=O)N1 [Compound 38, (E)-3-(2,4-dihydroxybenzylidene)pyrrolidine-2,5-dione] | – | – | better tyrosinase inhibitory activities than a kojic acid | > 300 °C | –
O=C1C/C(=C\c2ccc(O)c(O)c2)C(=O)N1 [Compound 37, (E)-3-(3,4-dihydroxybenzylidene)pyrrolidine-2,5-dione] | – | – | – | 290.8 to 291.9 °C | as high scavenging effects on ROS generated by vascular endothelial cells as trolox
O=C1NC(=O)C(=Cc2ccc(O)c(O)c2)C(=O)N1 [Compound 15, 5-(3,4-dihydroxybenzylidene)pyrimidine-2,4,6(1H,3H,5H)-trione] | neither had distinctive clinical symptoms nor died | toxicity change was not identified | better tyrosinase inhibitory activities than a kojic acid | – | as high scavenging effects on ROS generated by vascular endothelial cells as trolox
COc1ccc(/C=C2\SC(=S)NC2=O)cc1O [Compound 66, (Z)-5-(3-hydroxy-4-methoxybenzylidene)-2-thioxothiazolidin-4-one] | – | – | better tyrosinase inhibitory activities than a kojic acid | 210.2 to 212.5 °C | –
O=C1NC(=S)N/C1=C\c1ccc(O)c(O)c1 [Compound 99, (Z)-5-(3,4-dihydroxybenzylidene)-2-thioxoimidazolidin-4-one] | – | – | – | > 300 °C | as high scavenging effects on ROS generated by vascular endothelial cells as trolox
O=C1NC(=S)N/C1=C\c1ccc(O)cc1O [Compound 100, (Z)-5-(2,4-dihydroxybenzylidene)-2-thioxoimidazolidin-4-one] | – | – | – | > 300 °C | as high scavenging effects on ROS generated by vascular endothelial cells as trolox
O=C1NC(=S)N/C1=C\c1cc(O)cc(O)c1 [Compound 106, (Z)-5-(3,5-dihydroxybenzylidene)-2-thioxoimidazolidin-4-one] | – | – | – | > 300 °C | as high scavenging effects on ROS generated by vascular endothelial cells as trolox
COc1cc(/C=C2\NC(=S)NC2=O)cc(OC)c1O [Compound 110, (Z)-5-(4-hydroxy-3,5-dimethoxybenzylidene)-2-thioxoimidazolidin-4-one] | – | – | – | 240.1 to 242.6 °C | as high scavenging effects on ROS generated by vascular endothelial cells as trolox
O=C1NC(=S)NC(=O)C1=Cc1ccc(O)c(O)c1 [Compound 50, 5-(3,4-dihydroxybenzylidene)-2-thioxodihydropyrimidine-4,6(1H,5H)-dione] | neither had distinctive clinical symptoms nor died | toxicity change was not identified | better tyrosinase inhibitory activities than a kojic acid | – | as high scavenging effects on ROS generated by vascular endothelial cells as trolox
COc1cc(/C=C2\NC(=S)NC2=O)ccc1O [Compound 101, (Z)-5-(4-hydroxy-3-methoxybenzylidene)-2-thioxoimidazolidin-4-one] | – | – | – | – | as high scavenging effects on ROS generated by vascular endothelial cells as trolox
[H]/N=C1/NC(=O)C(=Cc2ccc(O)c(O)c2)N1C [Compound 75, (Z)-5-(3,4-dihydroxybenzylidene)-2-imino-1-methylimidazolidin-4-one] | – | – | – | 293 to 295.3 °C | as high scavenging effects on ROS generated by vascular endothelial cells as trolox
COc1cc(/C=C2\N=C(C)OC2=O)cc(OC)c1OC(C)=O [Compound 95, (Z)-2,6-dimethoxy-4-((2-methyl-5-oxooxazol-4(5H)-ylidene)methyl)phenyl acetate] | – | – | – | – | as high scavenging effects on ROS generated by vascular endothelial cells as trolox
COc1ccc(/C=C2\CC(=O)NC2=O)cc1O [Compound 41, (E)-3-(3-hydroxy-4-methoxybenzylidene)pyrrolidine-2,5-dione] | – | – | better tyrosinase inhibitory activities than a kojic acid | 268.7 to 270.3 °C | –
COc1ccc(/C=C2\SC(=O)NC2=O)cc1O [Compound 6, (Z)-5-(3-hydroxy-4-methoxybenzylidene)thiazolidine-2,4-dione] | – | – | better tyrosinase inhibitory activities than a kojic acid | 254 to 257.6 °C | –
O=C1C/C(=C\c2ccc(O)cc2)C(=O)N1 [Compound 36, (E)-3-(4-hydroxybenzylidene)pyrrolidine-2,5-dione] | – | – | better tyrosinase inhibitory activities than a kojic acid | > 300 °C | –
O=C1NC(=O)C(=Cc2ccc(OCc3ccccc3)cc2)C(=O)N1 [Compound 123, 5-(4-(benzyloxy)benzylidene)pyrimidine-2,4,6(1H,3H,5H)-trione] | – | – | better tyrosinase inhibitory activities than a kojic acid | – | –
